# Experimental data from article PMC5225183, “Fingerprinting of neurotoxic compounds using a mouse embryonic stem cell dual luminescence reporter assay” (Archives of Toxicology, 2016).
# Read-outs that look alike come from different tables or passages of the source. Marks after values point to notes of the source that are not given here.
# How the values were obtained:
# CGR8-2Luc ESCs = system: CGR8-2Luc ESCs
# Source text: (§1) Fig. 1 Synopsis of experimental protocols. The impact of compounds on neural promoter activity (FLuc, Firefly Luciferase under the control of the Tα1 promoter), general promoter activity (RLuc, Renilla Luciferase under the control of the EF1α promoter), and amount of DNA (PI, propidium iodide fluorescence in cell homogenates) was investigated in undifferentiated mouse embryonic pluripotent stem cells (ESCs) and on ESC-derived neurons. Arrows indicate the time of measurement of the three parameters. a Protocol for testing compounds effects on ESCs. CGR8-2Luc cells were plated on gelatin-coated 96-well plates in maintenance medium (BHK21 medium containing 10 % FCS, L-glutamine, NEAA, P/S, and LIF). Twenty-four hours later, cells were exposed to compounds for forty-eight hours. b Protocol for testing compounds on ESC-derived neurons. CGR8-2Luc cells were co-cultured with MS5 cells to induce neural differentiation in DMEM medium containing 15 % KO-serum, NEAA, β-mercaptoethanol, and P/S. On day 5, cells were detached and seeded on polyornithine-coated plates in DMEM medium containing N2 supplement, bFGF, and P/S; compound exposure was from day 6 to day 8
# (§2) To test compounds on ESC-derived neurons, neuronal differentiation was carried out as previously described (Suter et al. [2009]; Xu et al. [2014]). Briefly, CGR8-2Luc cells were seeded on irradiated bone marrow-derived stromal MS5 cells and cultivated for 4 days in DMEM medium containing 15 % Knock-out™ Serum Replacement, non-essential amino acids, beta-mercaptoethanol, and penicillin/streptomycin. At day 5, cells were then re-plated (3 × 10^5 cells/cm^2) on polyornithine-coated 96-well plates in N2 medium containing DMEM, N2 supplement, penicillin/streptomycin, and 10 ng/ml basic human fibroblast growth factor (bFGF) (Invitrogen). […] To assess toxicity of compounds on undifferentiated pluripotent stem cells (ESCs), CGR8-2Luc cells were plated at 45,000 cells/cm^2 on 0.1 % gelatin-coated dishes in BHK21 medium, supplemented with 10 % fetal calf serum, L-glutamine, non-essential amino acids, penicillin/streptomycin, and leukemia inhibitory factor (LIF). After 24 h, compounds were added and incubated for 48 h, before luciferase expression and PI fluorescence were analyzed. In all experiments, methylmercury was used as a positive control at a concentration of 5 µM.
# (§3) After measurement of luciferase activity, DNA quantity was determined by PI assay, as previously described (Xu et al. [2014]). PI was added to cell homogenates after the luciferase test, at a final concentration of 50 µg/ml and incubated for 2 h. After incubation, fluorescence intensity was measured on a Flexstation 3 microplate reader (Excitation: 544 nm ± 15 nm; Emission: 620 nm ± 15 nm). Results are expressed as percentage of control. Propidium iodide (PI) measures total DNA content as an approximation of the cell number. A decrease in PI fluorescence was interpreted as a decrease in cell number and therefore throughout the text referred to as cytotoxicity.
# (§4) Lowest adverse effect level (LOAEL) was defined as the lowest tested concentrations that lead to a statistically significant decrease for a given read-out (FLuc, RLuc, and PI) compared to baseline. “Baseline” was not in all cases defined by untreated cells, but may also refer to, e.g., a state of increased activity due to low, non-toxic compound concentrations.
# ESC-derived neurons = system: ESC-derived neurons
# Source text: as §1, §2, §3, §4
# [1] = system: Tubulin α1 (Tα1) promoter; test: cells
# Source text: (§5) Dual luciferase expressing CGR8-2Luc cells were obtained by transduction of mouse ESC CGR8 cells with the 2K7 EFS-Renilla Luciferase (RLuc)/Talpha1-Firefly Luciferase (FLuc) vector as previously described (Suter et al. [2006], [2009]); EFS corresponds to the short promoter of the eukaryotic translation elongation factor 1 alpha (EF1α), and Talpha1 to the Tubulin α1 (Tα1) promoter. Tα1 was selected as a promoter active in neurons, including early stages of neural differentiation. EF1α was originally selected to function as a constitutive promoter; however, it responds to cellular differentiation as well as to various chemicals, as previously shown (Kern et al. [2013]). Cells were cultured on 0.1 % gelatin-coated dishes in CGR8-2luc maintenance medium: BHK21 medium, supplemented with 10 % fetal calf serum, L-glutamine, non-essential amino acids, penicillin/streptomycin, and leukemia inhibitory factor (LIF). CGR8 cells were grown in a feeder-independent manner (embryonic pluripotent stem cells, ESCs) as described in protocol 1 (Fig. 1) before testing compounds of interest.
# as §1, §2
# (§6) Luciferase activities were measured with a Dual-Luciferase™ Reporter system kit. CGR8-2Luc ES cells were lysed in 96-well plates according to the manufacturer’s instructions. Luminescence measurements were performed on a Fluostar Optima reader. Luminescence counts were expressed as percentage of promoter activity normalized by comparison with the control wells treated by DMSO.
# EF1α promoter = system: EF1α promoter
# Source text: as §5, §1, §2, §6
# [2] = system: Tubulin α1 (Tα1) promoter
# Source text: as §5, §1, §2, §6
# [3] = system: ESCs and ESC-derived neurons; test: Dual luminescence reporter test system, all readouts in ESCs and ESC-derived neurons
# Source text: as §1, with “neurons.” for “neurons. CGR8-2Luc cells were co-cultured with MS5 cells to induce neural differentiation in DMEM medium containing 15 % KO-serum, NEAA, β-mercaptoethanol, and P/S. On day 5, cells were detached and seeded on polyornithine-coated plates in DMEM medium containing N2 supplement, bFGF, and P/S; compound exposure was from day 6 to day 8”
# as §2, with “At” for “To test compounds on ESC-derived neurons, neuronal differentiation was carried out as previously described (Suter et al. [2009]; Xu et al. [2014]). Briefly, CGR8-2Luc cells were seeded on irradiated bone marrow-derived stromal MS5 cells and cultivated for 4 days in DMEM medium containing 15 % Knock-out™ Serum Replacement, non-essential amino acids, beta-mercaptoethanol, and penicillin/streptomycin. At”
# Luciferase activities were measured with a Dual-Luciferase™ Reporter system kit. CGR8-2Luc ES cells were lysed in 96-well plates according to the manufacturer’s instructions. Luminescence measurements were performed on a Fluostar Optima reader. Luminescence counts were expressed as percentage of promoter activity normalized by comparison with the control wells treated by DMSO. […] parameters were measured in homogenates of ESCs and in ESC-derived neurons: (1) FLuc, reflecting the activity of early neural promoter Tα1. FLuc increases during neuronal differentiation. Many neurotoxic compounds may affect FLuc expression, either through impact on neuronal differentiation, through changes of neuronal gene expression, or through killing of neurons.
# PI was added to cell homogenates after the luciferase test, at a final concentration of 50 µg/ml and incubated for 2 h. After incubation, fluorescence intensity was measured on a Flexstation 3 microplate reader (Excitation: 544 nm ± 15 nm; Emission: 620 nm ± 15 nm). Results are expressed as percentage of control. Propidium iodide (PI) measures total DNA content as an approximation of the cell number. A decrease in PI fluorescence was interpreted as a decrease in cell number and therefore throughout the text referred to as cytotoxicity.
# To describe the shape of different concentration–response curves, arbitrary scores were assigned as follows: 0 for “no change,” 1 for “down-stroke,” 2 for “bimodal profile,” and 3 for “up-stroke” (Fig. S1). A curve was classified as “down-stroke” or “up-stroke” if the change in response values comparative to control was statistically significant (p value <0.05, one-way ANOVA with post hoc Dunnett) with an additional requirement of a 30 % decrease or increase of mean response value relative to controls, respectively. If the absolute change in mean response values was below 30 % the curve was classified as “no change.” A curve was classified as “bimodal” if first up-stroke and subsequently down-stroke was observed.
# [4] = Table S1, three classes; ref per compound in the footnotes of Table S1; cited from earlier work
# [5] = cited from earlier work
# [6] = undifferentiated ESCs, 48 h exposure, PI assay (cytotoxicity)
# [7] = ESC-derived neurons, 48 h exposure, PI assay (cytotoxicity)
# [8] = ESC-derived neurons, 48 h exposure
# [9] = undifferentiated ESCs, 48 h exposure
# [10] = undifferentiated ESCs, 48 h exposure, lowest tested concentration with statistically significant decrease
smiles,measurement,setting,value
O=C(O)c1cc[c]([Hg][Cl])cc1 [4-chloromercuric benzoic acid],LOAEL ESC DNA,CGR8-2Luc ESCs,5 µM
same,LOAEL Neurons DNA,ESC-derived neurons,100 µM
same,LOAEL Neurons Tα1,[1],10 µM
same,LOAEL ESC EF1α,EF1α promoter,5 µM
same,LOAEL Neurons EF1α,EF1α promoter,100 µM
same,LOAEL ESC Tα1,[2],5 µM
same,Number of non-cytotoxic changes,[3],1
same,class based on clinical evidence for neurotoxicity,[4],Possibly (developmental)
[CH3][Sn]([CH3])([CH3])[Cl] [Trimethyltin chloride],LOAEL ESC DNA,CGR8-2Luc ESCs; [6],5 µM
same,LOAEL Neurons DNA,ESC-derived neurons; [7],5 µM
same,LOAEL Neurons Tα1,[1]; [8],5 µM
same,EF1α promoter LOAEL in neurons,EF1α promoter; [8],50 nM
same,LOAEL Neurons EF1α,EF1α promoter; [8],0.05 µM
same,LOAEL ESC EF1α,EF1α promoter; [9],5 µM
same,LOAEL ESC Tα1,[2]; [10],5 µM
same,Number of non-cytotoxic changes,"[3]; reporter activity changes in the non-cytotoxic concentration range, highest possible number 4",1
same,class based on clinical evidence for neurotoxicity,[4],Well-established (developmental)
OC[C@@H](O)[C@@H](O)[C@H](O)[C@H](O)CO [D-mannitol],LOAEL ESC DNA,CGR8-2Luc ESCs; [6],>50 µM
same,LOAEL Neurons DNA,ESC-derived neurons; [7],>50 µM
same,LOAEL Neurons Tα1,[1]; [8],>50 µM
same,LOAEL Neurons EF1α,EF1α promoter; [8],>50 µM
same,LOAEL ESC EF1α,EF1α promoter; [9],>50 µM
same,LOAEL ESC Tα1,[2]; [10],>50 µM
same,result in the dual luminescence reporter test system,[3],negative
same,Number of non-cytotoxic changes,"[3]; mouse, 48 h",0
same,class based on clinical evidence for neurotoxicity,[4],Non-neurotoxic
CN(C)CCCN1c2ccccc2Sc2ccc(Cl)cc21 [Chlorpromazine],LOAEL ESC DNA,CGR8-2Luc ESCs; [6],20 µM
same,LOAEL Neurons DNA,ESC-derived neurons; [7],20 µM
same,LOAEL Neurons Tα1,[1]; [8],1 µM
same,LOAEL Neurons EF1α,EF1α promoter; [8],2 µM
same,LOAEL ESC EF1α,EF1α promoter; [9],20 µM
same,LOAEL ESC Tα1,[2]; [10],20 µM
same,Number of non-cytotoxic changes,"[3]; mouse, 48 h",1
same,class based on clinical evidence for neurotoxicity,[4],Well-established (developmental)
N[C@@H](CC(=O)N1CCn2c(nnc2C(F)(F)F)C1)Cc1cc(F)c(F)cc1F [Sitagliptin],LOAEL ESC DNA,CGR8-2Luc ESCs; [6],>50 µM
same,LOAEL Neurons DNA,ESC-derived neurons; [7],>50 µM
same,LOAEL Neurons Tα1,[1]; [8],>50 µM
same,LOAEL Neurons EF1α,EF1α promoter; [8],>50 µM
same,LOAEL ESC EF1α,EF1α promoter; [9],>50 µM
same,LOAEL ESC Tα1,[2]; [10],>50 µM
same,Number of non-cytotoxic changes,"[3]; mouse, 48 h",0
same,Concentration in humans,[5]; ref Zimmer et al. ([2014]),1.9^k µM
CCC[C@H](NC(=O)[C@@H]1[C@H]2CCC[C@H]2CN1C(=O)[C@@H](NC(=O)[C@@H](NC(=O)c1cnccn1)C1CCCCC1)C(C)(C)C)C(=O)C(=O)NC1CC1 [Telaprevir],LOAEL ESC DNA,CGR8-2Luc ESCs; [6],50 µM
same,LOAEL Neurons DNA,ESC-derived neurons; [7],50 µM
same,LOAEL Neurons Tα1,[1]; [8],50 µM
same,LOAEL Neurons EF1α,"EF1α promoter; mouse, 48 h",50 µM
same,LOAEL ESC EF1α,EF1α promoter; [9],50 µM
same,LOAEL ESC Tα1,[2]; [10],50 µM
same,Number of non-cytotoxic changes,"[3]; mouse, 48 h",0
same,Concentration in humans,[5]; in vivo,5.1^k µM
O=C(O)c1cccnc1 [Nicotinic acid],LOAEL ESC DNA,CGR8-2Luc ESCs; mouse,>50 µM
same,LOAEL Neurons DNA,ESC-derived neurons; mouse,>50 µM
same,LOAEL Neurons Tα1,[1]; mouse,>50 µM
same,LOAEL ESC EF1α,EF1α promoter; mouse,>50 µM
same,LOAEL Neurons EF1α,EF1α promoter; mouse,>50 µM
same,LOAEL ESC Tα1,[2]; mouse,>50 µM
same,result in the dual luminescence reporter test system,[3],negative
same,Number of non-cytotoxic changes,"[3]; mouse, 48 h",0
same,class based on clinical evidence for neurotoxicity,[4],Non-neurotoxic
COCCCOc1cc(C[C@@H](C[C@H](N)[C@@H](O)C[C@H](C(=O)NCC(C)(C)C(N)=O)C(C)C)C(C)C)ccc1OC [Aliskiren],LOAEL ESC DNA,CGR8-2Luc ESCs; [6],>50 µM
same,LOAEL Neurons DNA,ESC-derived neurons; [7],>50 µM
same,LOAEL Neurons Tα1,[1]; [8],>50 µM
same,LOAEL Neurons EF1α,EF1α promoter; [8],>50 µM
same,LOAEL ESC EF1α,EF1α promoter; [9],>50 µM
same,LOAEL ESC Tα1,[2]; [10],>50 µM
same,Number of non-cytotoxic changes,"[3]; mouse, 48 h",0
same,Concentration in humans,[5]; ref Zimmer et al. ([2014]),0.33^k µM
